Columns and labels:
[1] = test system: TGase; assay: In situ TGase activity in endothelial cells under HGM conditions; type: cell-based; settings: 30 mM glucose 3 days then 5.5 mM 3 days, 1 nM K9-C-peptide or K8 polypeptide, 0.5 µM Trolox, 50 µM cystamine, 1 nM human C-peptide, confocal, n = 4
Protocol: (§1) HRECs were purchased from the Applied Cell Biology Research Institute (Cell Systems, Kirkland, WA) and grown on 2% gelatin-coated plates in M199 medium supplemented with 20% FBS, 3 ng/mL basic fibroblast growth factor, 100 U/mL penicillin, and […] streptomycin in a humidified 5% CO2 incubator. Cells were authenticated by short tandem repeat profiling, and subconfluent cells after 7–9 passages were used in experiments. For the experiments, endothelial cells were incubated for 12 h in a low-serum medium supplemented with 2% fetal bovine serum, 0.1 ng/mL basic fibroblast growth factor, and antibiotics. The cells were then treated with 5.5 mM D-glucose for 6 days (normal glucose), 30 mM glucose for 6 days (high glucose), or 30 mM glucose for 3 days followed by 5.5 mM glucose for 3 days (HGM).
In situ TGase transamidating activity was measured by confocal microscopic assay as previously described. Briefly, HRECs were treated with 1 mmol/L 5-(biotinamido)pentylamine for 1 h and fixed with 3.7% formaldehyde for 30 min. The cells were then permeabilized with 0.2% Triton X-100 in PBS for 30 min and stained with FITC-conjugated streptavidin (1:200; MilliporeSigma, Burlington, MA, USA) for 1 h. The fluorescence intensities of single stained cells were determined by confocal microscopy (K1-Fluo) for 30 randomly selected cells in three microscopic fields per experiment (n = 4).

[2] = test system: human retinal endothelial cells (HRECs); assay: Intracellular ROS levels in endothelial cells under HGM conditions; type: cell-based; settings: 30 mM glucose 3 days then 5.5 mM 3 days; 1 nM K9-C-peptide or K8 polypeptide, 0.5 µM Trolox, 50 µM cystamine, 1 nM human C-peptide; CellROX green and H2DCFDA, n = 4
Protocol: as §1
Intracellular ROS levels were measured in HRECs using CellROX™ green reagent and 2′,7′-dichlorodihydrofluorescein diacetate (Thermo Fisher Scientific, Waltham, MA, USA) as previously described. Labeled cells on coverslips were mounted in a perfusion chamber and analyzed by confocal microscopy (K1-Fluo). ROS levels were determined at the single-cell level for 30 randomly selected cells in three microscopic fields per experiment (n = 4).

[3] = cited from earlier work
Protocol: However, C-peptide is limited in clinical applications by its short circulating half-life (approximately 30 min) and costly chemical synthesis. Recently, we prepared K9-C-peptide, a recombinant human C-peptide conjugated to ELP, to facilitate long-term systemic delivery of C-peptide. ELPs, derived from human elasti ...

[4] = test system: type 1 and type 2 diabetic mice; settings: cited from earlier work
Description: The coincidence of diabetic complications, including DR, DPN, and DKD, has been reported in a number of clinical studies. Among the potential microvascular complications of diabetes, the coincidence of DR and DKD was reported to be high in epidemiological studies of both type 1 and type 2 diabetes. Co-occurrence of microvascular complications has also been observed in diabetic animal models including diabetic mice and rats. Moreover, increased mortality was reported in patients with both DR and systemic vascular diseases, including DKD [[ ...

[5] = Human C-peptide level in mouse serum (ELISA); type: in vivo; settings: HGM mice (STZ diabetic, insulin by osmotic pump 4 weeks), 4 weeks after s.c. K9-C-peptide 100 mg/kg or K8 polypeptide 83 mg/kg, injected twice, mean ± SD, n = 6
Protocol: (§2) One day after implantation of the osmotic pumps, human C-peptide was systemically supplemented by subcutaneous implantation of K9-C-peptide depots as previously described. […] The K9-C-peptide and K8 polypeptide were prepared by inverse transition cycling as previously described. Four weeks after the subcutaneous injections, sera and retinal, lung, and kidney tissues were obtained from the mice and analyzed. All animal experiments conformed to the Guide for the Care and Use of Laboratory Animals (National Institutes of Health; Bethesda, MD, USA) and were approved by the Institutional Animal Care and Use Ethics Committee of Kangwon National University (KW-201204–3).

[6] = Human insulin level in mouse serum (ELISA); type: in vivo; settings: HGM mice, insulin by osmotic pump 58.4 pmol/min/kg for 4 weeks, alone or with K8 polypeptide or K9-C-peptide, 10 weeks after streptozotocin, mean ± SD, n = 6
Protocol: as §2

[7] = test system: insulin-supplemented diabetic (HGM) mice; assay: Body weight, blood glucose, water and food consumption of HGM mice; type: in vivo, mouse; settings: 4 weeks of treatment, insulin vs diabetic, K9-C-peptide/K8 on top of insulin, n = 6
Protocol: Six-week-old male C57BL/6 mice were obtained from DBL (EumSeong, Korea). […] Soo-Yul Kim (National Cancer Center, Goyang, Republic of Korea). Mice were maintained under pathogen-free conditions in a temperature-controlled room with a 12-h light/dark cycle. Diabetic mice were generated by single daily intraperitoneal injections of streptozotocin (50 mg/kg body weight; MilliporeSigma, Burlington, MA, USA) freshly prepared in 100 mM citrate buffer (pH 4.5) for 5 consecutive days, as previously described. The control group mice were injected with an equal volume of the citrate buffer. Mice with fasting blood glucose concentrations ≥ 19 mmol/L, polyuria, and glucosuria were considered diabetic. Mouse blood glucose levels and body weights were monitored weekly. […] One day after implantation of the osmotic pumps, human C-peptide was systemically supplemented by subcutaneous implantation of K9-C-peptide depots as previously described. […] The K9-C-peptide and K8 polypeptide were prepared by inverse transition cycling as previously described. Four weeks after the subcutaneous injections, sera and retinal, lung, and kidney tissues were obtained from the mice and analyzed. All animal experiments conformed to the Guide for the Care and Use of Laboratory Animals (National Institutes of Health; Bethesda, MD, USA) and were approved by the Institutional Animal Care and Use Ethics Committee of Kangwon National University (KW-201204–3).

Compound: Cc1c(C)c2c(c(C)c1O)CCC(C)(C(=O)O)O2 (stereo not drawn) [Trolox]
- HGM-induced persistent TGase activation in HRECs [1]: inhibited
- HGM-induced persistent ROS generation in HRECs [2]: inhibited

Compound: NCCSSCCN [cystamine]
- HGM-induced persistent TGase activation in HRECs [1]: inhibited
- HGM-induced persistent ROS generation in HRECs [2]: inhibited

Compound: CC(C)C[C@H](NC(=O)[C@H](C)NC(=O)[C@H](CC(C)C)NC(=O)[C@@H]1CCCN1C(=O)[C@H](CCC(N)=O)NC(=O)[C@H](CC(C)C)NC(=O)[C@H](CO)NC(=O)CNC(=O)[C@H](C)NC(=O)CNC(=O)[C@@H]1CCCN1C(=O)CNC(=O)CNC(=O)CNC(=O)[C@H](CC(C)C)NC(=O)[C@H](CCC(=O)O)NC(=O)[C@@H](NC(=O)[C@H](CCC(N)=O)NC(=O)CNC(=O)[C@@H](NC(=O)[C@H](CCC(N)=O)NC(=O)[C@H](CC(C)C)NC(=O)[C@H](CC(=O)O)NC(=O)[C@H](CCC(=O)O)NC(=O)[C@H](C)NC(=O)[C@@H](N)CCC(=O)O)C(C)C)C(C)C)C(=O)N[C@@H](CCC(=O)O)C(=O)NCC(=O)N[C@@H](CO)C(=O)N[C@@H](CC(C)C)C(=O)N[C@@H](CCC(N)=O)C(=O)O [human C-peptide]
- Circulating half-life [3]: approximately 30 min

Compound: CN(C)c1ccc(O)c2c1C[C@H]1C[C@H]3[C@H](N(C)C)C(O)=C(C(N)=O)C(=O)[C@@]3(O)C(O)=C1C2=O [minocycline]
- Effect on DR and DKD ([4]; DR in type 1 and DKD in type 2 diabetic mice, respectively): partially ameliorated
- Effect on DPN ([4]; type 1 and type 2 diabetic mice (either animal model)): failed to improve

Compound: insulin: human recombinant insulin delivered by subcutaneous osmotic pump (HGM group)
- Serum C-peptide [5]: not detectable
- Serum human insulin [6]: in the physiological range
- Effect on blood glucose level (hyperglycemia) [7]: normalized
- Effect on body weight [7]: normalized
- Effect on water and food consumption [7]: normalized

From paper PMC9926630, “Simultaneous attenuation of hyperglycemic memory-induced retinal, pulmonary, and glomerular dysfunctions by proinsulin C-peptide in diabetes” (BMC Medicine, 2023)
